Laboratory results as given in patent US9796711B2, “Substituted pyrazolo[3,4-b]pyridin-6-carboxylic acids and method of use” (AbbVie S.àr.l., priority 2015, dated 2017).

What was measured:
ΔF508-CFTR [1] = biological target: T1, ΔF508-CFTR (Homo sapiens, UniProt P13569, DEL508-508); test: CFTR cell surface levels using HRP-tagged ΔF508-CFTR expressing CFBE cells, in the presence of a co-corrector; format: cell-based; conditions: HRP-tagged ΔF508-CFTR expressing CFBE cells, in the presence of 3 μM co-corrector; for EC50: read-out: EC50
T1 construct: host or cells: CFBE41o-, doxycycline-inducible
In short: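 Cells were seeded with 0.5 μg/mL doxycycline and held 68 h at 37 °C. Test compounds plus 3 μM co-corrector (final 0.1% DMSO) were then added for 20 h at 33 °C. Washed cells received HRP substrate, and luminescence was normalized between DMSO and 3 μM co-corrector controls.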

ΔF508-CFTR [2] = biological target: T1, ΔF508-CFTR; test: CFTR cell surface levels using HRP-tagged ΔF508-CFTR expressing CFBE cells, intrinsic corrector capacity; format: cell-based; conditions: HRP-tagged ΔF508-CFTR expressing CFBE cells, intrinsic corrector capacity (no co-corrector), 33° C., 20 hours; for EC50: read-out: EC50
In short: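 Here the cells express ΔF508-CFTR with horseradish peroxidase inserted in extracellular loop 4, so only rescued channel at the surface gives luminescent signal. Compounds act on their own, 20 h at the reduced temperature of 33 °C; values are percent activity relative to DMSO and a 3 μM corrector.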

T1 sequence (P13569 with tags, fused parts or gaps DEL508-508): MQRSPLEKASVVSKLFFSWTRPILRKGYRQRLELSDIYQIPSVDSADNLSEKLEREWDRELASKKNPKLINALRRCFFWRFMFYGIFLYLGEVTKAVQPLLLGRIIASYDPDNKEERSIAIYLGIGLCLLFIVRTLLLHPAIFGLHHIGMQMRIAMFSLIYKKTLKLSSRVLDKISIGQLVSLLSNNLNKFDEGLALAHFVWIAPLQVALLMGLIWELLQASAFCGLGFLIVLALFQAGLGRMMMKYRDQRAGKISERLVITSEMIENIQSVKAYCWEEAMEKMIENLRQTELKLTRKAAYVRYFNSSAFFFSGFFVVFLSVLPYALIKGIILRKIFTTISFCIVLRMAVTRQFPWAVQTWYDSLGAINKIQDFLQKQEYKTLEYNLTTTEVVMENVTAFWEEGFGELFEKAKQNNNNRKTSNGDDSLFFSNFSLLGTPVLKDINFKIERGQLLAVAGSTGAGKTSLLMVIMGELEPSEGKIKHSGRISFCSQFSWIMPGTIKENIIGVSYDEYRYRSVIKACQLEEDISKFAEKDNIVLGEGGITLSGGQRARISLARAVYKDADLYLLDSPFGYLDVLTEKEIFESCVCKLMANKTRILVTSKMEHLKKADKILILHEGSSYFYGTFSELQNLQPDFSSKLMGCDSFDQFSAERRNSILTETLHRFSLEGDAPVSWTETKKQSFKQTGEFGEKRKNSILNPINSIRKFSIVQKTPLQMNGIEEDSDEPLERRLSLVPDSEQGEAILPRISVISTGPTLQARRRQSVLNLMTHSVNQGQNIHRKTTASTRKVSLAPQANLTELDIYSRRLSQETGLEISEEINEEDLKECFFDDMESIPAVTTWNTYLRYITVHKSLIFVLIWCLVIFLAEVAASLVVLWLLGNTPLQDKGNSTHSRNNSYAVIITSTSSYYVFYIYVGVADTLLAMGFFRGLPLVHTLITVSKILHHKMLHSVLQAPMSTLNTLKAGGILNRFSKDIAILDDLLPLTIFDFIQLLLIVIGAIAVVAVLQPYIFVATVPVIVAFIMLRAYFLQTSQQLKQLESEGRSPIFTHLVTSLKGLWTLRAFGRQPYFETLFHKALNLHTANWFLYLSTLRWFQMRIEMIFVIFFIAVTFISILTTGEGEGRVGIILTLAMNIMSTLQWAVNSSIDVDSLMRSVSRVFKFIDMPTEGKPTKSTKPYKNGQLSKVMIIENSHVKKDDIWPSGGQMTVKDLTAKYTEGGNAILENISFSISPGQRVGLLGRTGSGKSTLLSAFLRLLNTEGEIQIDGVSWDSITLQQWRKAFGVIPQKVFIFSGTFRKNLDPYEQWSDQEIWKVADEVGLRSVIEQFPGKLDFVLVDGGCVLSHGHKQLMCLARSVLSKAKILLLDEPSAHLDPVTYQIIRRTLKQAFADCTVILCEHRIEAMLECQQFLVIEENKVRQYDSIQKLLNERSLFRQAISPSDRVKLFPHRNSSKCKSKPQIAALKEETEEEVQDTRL

Structure (SMILES) | % Activation (ΔF508-CFTR [1]) [%] | EC50 (ΔF508-CFTR [1]) [nM] | % Activation (ΔF508-CFTR [2]) [%] | EC50 (ΔF508-CFTR [2]) [nM]
CC(C)Oc1nn(C2CCCCC2)c2nc(C(=O)O)cc(-c3ccc(N4CCN(C(C)C)CC4)cc3)c12 [compound 863, 1-cyclohexyl-3-[(propan-2-yl)oxy]-4-{4-[4-(propan-2-yl)piperazin-1-yl]phenyl}-1H-pyrazolo[3,4-b]pyridine-6-carboxylic acid] | 320.9 | 370 | 156.35 | 499
Cc1cc(N2CCN(c3cc(C(=O)O)nc4c3c(C3CCC3)nn4C3CCCCC3)CC2)ccn1 [compound 864, 3-cyclobutyl-1-cyclohexyl-4-[4-(2-methylpyridin-4-yl)piperazin-1-yl]-1H-pyrazolo[3,4-b]pyridine-6-carboxylic acid] | 458.6 | 105 | 337.7 | 1010
CC(C)N1CCN(c2ccc(-c3cc(C(=O)O)nc4c3c(C3CCC3)nn4C3CCCCC3)cn2)CC1 [compound 865, 3-cyclobutyl-1-cyclohexyl-4-{6-[4-(propan-2-yl)piperazin-1-yl]pyridin-3-yl}-1H-pyrazolo[3,4-b]pyridine-6-carboxylic acid] | 306.8 | 1120 | 146.9 | 439
CC(c1ccc(-c2cc(C(=O)O)nc3c2c(C2CCC2)nn3C2CCCCC2)cc1)N1CCOCC1 (centres unmarked) [compound 866, 3-cyclobutyl-1-cyclohexyl-4-{4-[1-(morpholin-4-yl)ethyl]phenyl}-1H-pyrazolo[3,4-b]pyridine-6-carboxylic acid] | 298.3 | 151 | 99.71 | 277
CC(C)N1CCN(c2ccc(-c3cc(C(=O)O)nc4c3c(C3CCC3)nn4C3CCCCC3)cc2)CC1 [compound 867, 3-cyclobutyl-1-cyclohexyl-4-{4-[4-(propan-2-yl)piperazin-1-yl]phenyl}-1H-pyrazolo[3,4-b]pyridine-6-carboxylic acid] | 290.65 | 317 | 125.2 | 1410
O=C(O)c1cc(-c2ccc(N3CCN(C4CC4)CC3)nc2)c2c(C3CCC3)nn(C3CCCCC3)c2n1 [compound 868, 3-Cyclobutyl-1-cyclohexyl-4-[6-(4-cyclopropylpiperazin-1-yl)-pyridin-3-yl]-1H-pyrazolo[3,4-b]pyridine-6-carboxylic acid] | 337.8 | 176 | 140.3 | 239
O=C(O)c1cc(N2CCC(N3CCC(C(F)(F)F)C3)CC2)c2c(C3CCC3)nn(-c3ccc(F)cc3)c2n1 (centres unmarked) [compound 869] | 513.05 | 37.7 | 299.1 | 113
N#CC1CCN(C2CCN(c3cc(C(=O)O)nc4c3c(C3CCC3)nn4-c3ccc(F)cc3)CC2)C1 (centres unmarked) [compound 870, 4-[4-(3-cyanopyrrolidin-1-yl)piperidin-1-yl]-3-cyclobutyl-1-(4-fluorophenyl)-1H-pyrazolo[3,4-b]pyridine-6-carboxylic acid] | 611.45 | 171 | 304.4 | 1040
N#CC1CCCN(C2CCN(c3cc(C(=O)O)nc4c3c(C3CCC3)nn4-c3ccc(F)cc3)CC2)C1 (centres unmarked) [compound 871, 4-(3-cyano[1,4′-bipiperidin]-1′-yl)-3-cyclobutyl-1-(4-fluorophenyl)-1H-pyrazolo[3,4-b]pyridine-6-carboxylic acid] | 681.7 | 156 | 355.1 | 275
O=C(O)c1cc(N2CCC(N3CCCC(F)C3)CC2)c2c(C3CCC3)nn(-c3ccc(F)cc3)c2n1 (centres unmarked) [compound 872, 3-cyclobutyl-4-(3-fluoro[1,4′-bipiperidin]-1′-yl)-1-(4-fluorophenyl)-1H-pyrazolo[3,4-b]pyridine-6-carboxylic acid] | 548.45 | 172 | 368.7 | 591
COC1CN(C2CCN(c3cc(C(=O)O)nc4c3c(C3CCC3)nn4-c3ccc(F)cc3)CC2)C1 [compound 873, 3-cyclobutyl-1-(4-fluorophenyl)-4-[4-(3-methoxyazetidin-1-yl)piperidin-1-yl]-1H-pyrazolo[3,4-b]pyridine-6-carboxylic acid] | 332.45 | 1850 | 139.8 | 3340
O=C(O)c1cc(N2CCC(N3CCCC(C(F)(F)F)C3)CC2)c2c(C3CCC3)nn(-c3ccc(F)cc3)c2n1 (centres unmarked) [compound 874, 3-cyclobutyl-1-(4-fluorophenyl)-4-[3-(trifluoromethyl)[1,4′-bipiperidin]-1′-yl]-1H-pyrazolo[3,4-b]pyridine-6-carboxylic acid] | 608.35 | 83 | 330.7 | 170
COC1CCCN(C2CCN(c3cc(C(=O)O)nc4c3c(C3CCC3)nn4-c3ccc(F)cc3)CC2)C1 (centres unmarked) [compound 875, 3-cyclobutyl-1-(4-fluorophenyl)-4-(3-methoxy[1,4′-bipiperidin]-1′-yl)-1H-pyrazolo[3,4-b]pyridine-6-carboxylic acid] | 450.3 | 819 | 270.7 | 1600
CC1(C)CN(C2CCN(c3cc(C(=O)O)nc4c3c(C3CCC3)nn4-c3ccc(F)cc3)CC2)CCO1 [compound 876, 3-cyclobutyl-4-[4-(2,2-dimethylmorpholin-4-yl)piperidin-1-yl]-1-(4-fluorophenyl)-1H-pyrazolo[3,4-b]pyridine-6-carboxylic acid] | 562.35 | 267 | 324.4 | 301
CN1CCN(c2ccc(-c3cc(C(=O)O)nc4c3c(C3CCC3)nn4C3CCCCC3)cn2)CC1 [compound 877, 3-cyclobutyl-1-cyclohexyl-4-[6-(4-methylpiperazin-1-yl)pyridin-3-yl]-1H-pyrazolo[3,4-b]pyridine-6-carboxylic acid] | 374.57 | 605 | 162.65 | 348
CC(C)N1CCN(C2CCN(c3cc(C(=O)O)nc4c3c(C3CCC3)nn4-c3ccc(F)cc3)CC2)CC1 [compound 879, 3-cyclobutyl-1-(4-fluorophenyl)-4-{4-[4-(propan-2-yl)piperazin-1-yl]piperidin-1-yl}-1H-pyrazolo[3,4-b]pyridine-6-carboxylic acid] | 446.25 | 196 | 279.6 | 355
CC(C)N1CCN(C2CCN(c3cc(C(=O)O)nc4c3c(C3CCC3)nn4C3CCCCC3)CC2)CC1 [compound 880, 3-cyclobutyl-1-cyclohexyl-4-{4-[4-(propan-2-yl)piperazin-1-yl]piperidin-1-yl}-1H-pyrazolo[3,4-b]pyridine-6-carboxylic acid] | 446.95 | 693 | 259.5 | 169
CC(C)Oc1nn(C2CCCCC2)c2nc(C(=O)O)cc(-c3ccc(N4CCN(C)CC4)cc3)c12 [compound 883, 1-cyclohexyl-4-[4-(4-methylpiperazin-1-yl)phenyl]-3-[(propan-2-yl)oxy]-1H-pyrazolo[3,4-b]pyridine-6-carboxylic acid] | 380.9 | 238 | 160.6 | 330
CC(C)Oc1nn(C2CCCCC2)c2nc(C(=O)O)cc(-c3ccc(CN4CCN(C5CC5)CC4)cc3)c12 [compound 884, 1-cyclohexyl-4-{4-[(4-cyclopropylpiperazin-1-yl)methyl]phenyl}-3-[(propan-2-yl)oxy]-1H-pyrazolo[3,4-b]pyridine-6-carboxylic acid] | 377.6 | 214 | 140.6 | 298
O=C(O)c1cc(N2CCC(N3CCOCC3)CC2)c2c(C3CCC3)nn(-c3ccnc(O)c3)c2n1 [compound 885, 3-cyclobutyl-1-(2-hydroxypyridin-4-yl)-4-[4-(morpholin-4-yl)piperidin-1-yl]-1H-pyrazolo[3,4-b]pyridine-6-carboxylic acid] | 255.5 | 2450 | 66.2 | 3340
O=C(O)c1cc(N2CCC(N3CCOCC3)CC2)c2c(C3CCC3)nn(-c3ccnc(OC(F)F)c3)c2n1 [compound 889, 3-cyclobutyl-1-[2-(difluoromethoxy)pyridin-4-yl]-4-[4-(morpholin-4-yl)piperidin-1-yl]-1H-pyrazolo[3,4-b]pyridine-6-carboxylic acid] | 449.8 | 241 | 229.2 | 404
CCOC(=O)N1CCN(C2CCN(c3cc(C(=O)O)nc4c3c(C3CCC3)nn4-c3ccc(F)cc3)CC2)CC1 [compound 891, 3-cyclobutyl-4-{4-[4-(ethoxycarbonyl)piperazin-1-yl]piperidin-1-yl}-1-(4-fluorophenyl)-1H-pyrazolo[3,4-b]pyridine-6-carboxylic acid] | 564.5 | 51 | 367.25 | 93.1
O=C(O)c1cc(CN2CCC(N3CCOCC3)CC2)c2c(C3CCC3)nn(-c3ccc(F)cc3)c2n1 [compound 893, 3-Cyclobutyl-1-(4-fluoro-phenyl)-4-(4-morpholin-4-yl-piperidin-1-ylmethyl)-1H-pyrazolo[3,4-b]pyridine-6-carboxylic acid] | 236.6 | 3330 | 55.75 | 3140
